In brackets after ≈: the same amount, converted by molar mass. Read-outs that look alike come from different tables or passages of the source.
Assays:
[1] = Cytotoxicity assay of the compounds (CCK-8); type: cell-based, feline; settings: cat
Method: (§1) CRFK cells were seeded in 96-well cell culture plates at a density of 1 × 10^4 cells/well and incubated at 37 °C with 5% CO2 until the cell density reached more than 90%. Then, the medium was discarded, and the cells were washed twice with PBS. The compound to be tested was diluted in 10 successive gradients with MM at a 2-fold multiplicity (at the same time, there was a cell control group of 100 μL of MM, and 3 replicate wells were set for each concentration and group) and incubated at 37 °C with 5% CO2 for 72 h; then, the liquid in the plate was discarded and washed twice with PBS. Afterwards, the cytopathic ratios (CRs) of the compounds to cells were calculated according to the instructions of the Cell Counting Kit-8 (MCE, NJ, USA), and the CC50s of the compounds and the MNTCs at which the compounds could survive more than 90% of the cells were calculated using GraphPad Prism 10. In subsequent experiments, the final concentrations of the compounds after addition were the MNTCs of the compounds unless otherwise specified.

CRFK cells = assay: Cytotoxicity assay of the compounds (CCK-8); type: cell-based, feline
Method: as §1

FIPV (BJ-01) = assay: Inhibitory effects of compounds on FIPV-infected cells (compound and FIPV added simultaneously, CCK-8); type: cell-based, feline infectious peritonitis virus; settings: 72 h; for inhibition of FIPV infection (MIR): compound at MNTC added with 100 TCID50 FIPV to CRFK cells
Method: According to previous methods, CRFK cells were seeded in 96-well cell culture plates at a density of 1 × 10^4 cells/well and cultured at 37 °C in 5% CO2 until the cell density was greater than 90%. After the cells were washed twice with PBS, 50 μL of test compound and 50 μL of FIPV were added to each well simultaneously (at the same time, a cell control group with only 100 μL of MM and a viral control group with only 100 μL of FIPV were added). There were 3 replicate wells for each compound and group. After 72 h of incubation at 37 °C and 5% CO2, the liquid in the plate was discarded, and the cells were washed twice with PBS. The MIR of the compounds to the virus was calculated according to the instructions of the Cell Counting Kit-8. Afterwards, the compounds with MIR > 50% were diluted to 8 concentrations with MM, and the above process was repeated. Then, the EC50 values of the compounds were calculated with GraphPad Prism 10.

[2] = CRFK cells, 72 h, CCK-8, read-out: CC50
[3] = CRFK cells, 72 h, CCK-8, concentration at which more than 90% of the cells survive

SMILES	CC50 at 72 h [1] [µg/mL]	MNTC (maximum noncytotoxic concentration) (CRFK cells; cat, 72 h) [µg/mL]	inhibition of FIPV infection (MIR) (FIPV (BJ-01))	CC50 at 72 h [1, 2] [µg/mL]	MNTC (maximum noncytotoxic concentration) (CRFK cells; [3]) [µg/mL]	further results
O=C(O)/C=C/c1ccc(O)c(O)c1 [Caffeic acid]	58.8 (≈ 326 µM)	53.43				
O=C(/C=C/c1ccc(O)c(O)c1)O[C@@H]1C[C@](O)(C(=O)O)C[C@@H](O)[C@H]1O [Chlorogenic acid]	2170 (≈ 6120 µM)	1605				
C[S+](C)[O-] [DMSO]						MNTC (CRFK cells): 0.83%
Cc1cccc2c3c(ccc12)C1=C(C(=O)C3=O)[C@@H](C)CO1 [Dihydrotanshinone I]	426 (≈ 1530 µM)	246.4	less than 20%			
N#C[C@@]1(c2ccc3c(N)ncnn23)O[C@H](CO)[C@@H](O)[C@H]1O [GS-441524, reference compound]			significantly more than the other compounds tested	70.3 (≈ 241 µM)	36.20	EC50 (FIPV (BJ-01); Alphacoronavirus 1, FIPV in CRFK cells, gradient dilution, CCK-8): 0.205 µg/mL (≈ 0.704 µM)
CC1(C)[C@@H](O[C@H]2O[C@H](C(=O)O)[C@@H](O)[C@H](O)[C@H]2O[C@@H]2O[C@H](C(=O)O)[C@@H](O)[C@H](O)[C@H]2O)CC[C@]2(C)[C@H]3C(=O)C=C4[C@@H]5C[C@@](C)(C(=O)O)CC[C@]5(C)CC[C@@]4(C)[C@]3(C)CC[C@@H]12 [Glycyrrhizic acid]				3320 (≈ 4040 µM)	1412	
Cc1nc(C)c(C)nc1C.Cl [Ligustrazine hydrochloride]			less than 20%		969.6	CC50 (CRFK cells; CRFK cells, 72 h, CCK-8): 2709 µg/mL
O=C1CCC[C@@H]2[C@H]3CCCN4CCC[C@@H](CN12)[C@@H]34 [Matrine]			less than 20%	1110 (≈ 4470 µM)	699.8	
O=c1c(-c2ccc(O)cc2)coc2c([C@@H]3O[C@H](CO)[C@@H](O)[C@H](O)[C@H]3O)c(O)ccc12 [Puerarin]	209 (≈ 501 µM)	83.77	less than 20%			
Cc1coc2c1C(=O)C(=O)c1c-2ccc2c1CCCC2(C)C [Tanshinone IIA]			less than 20%	807 (≈ 2740 µM)	290.9	
